Experiments:
Estrogen receptor beta [1] = target: T1, Estrogen receptor beta (Homo sapiens, UniProt Q92731); assay: Agonist activity at human ER-beta transfected in African green monkey COS-7 cells measured after 24 hrs by Steady-Glo luciferase assay; assay type: cell-based
Aromatase = target: T2, Aromatase (Rattus norvegicus, UniProt P22443); assay: Inhibition of aromatase in rat mammary tumor; assay type: tissue-based, Mammary gland
T2 sequence (P22443 whole entry): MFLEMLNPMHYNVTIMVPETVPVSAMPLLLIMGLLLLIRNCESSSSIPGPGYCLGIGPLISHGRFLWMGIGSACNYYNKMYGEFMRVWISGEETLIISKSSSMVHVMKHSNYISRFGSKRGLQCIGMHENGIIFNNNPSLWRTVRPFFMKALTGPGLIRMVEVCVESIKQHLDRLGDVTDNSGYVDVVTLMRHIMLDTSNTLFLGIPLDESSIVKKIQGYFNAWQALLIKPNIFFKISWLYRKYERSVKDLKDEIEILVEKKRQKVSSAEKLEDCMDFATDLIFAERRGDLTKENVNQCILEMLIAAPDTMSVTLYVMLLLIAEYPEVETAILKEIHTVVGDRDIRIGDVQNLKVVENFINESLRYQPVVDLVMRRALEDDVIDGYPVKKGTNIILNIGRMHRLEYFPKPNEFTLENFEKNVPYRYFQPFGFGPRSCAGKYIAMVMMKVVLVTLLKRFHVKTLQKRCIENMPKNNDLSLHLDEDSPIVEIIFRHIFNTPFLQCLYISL

Estrogen receptor = target: T3, Estrogen receptor (Homo sapiens, UniProt P03372); assay: Modulation of ER-alpha (unknown origin)
T3 sequence (P03372 whole entry): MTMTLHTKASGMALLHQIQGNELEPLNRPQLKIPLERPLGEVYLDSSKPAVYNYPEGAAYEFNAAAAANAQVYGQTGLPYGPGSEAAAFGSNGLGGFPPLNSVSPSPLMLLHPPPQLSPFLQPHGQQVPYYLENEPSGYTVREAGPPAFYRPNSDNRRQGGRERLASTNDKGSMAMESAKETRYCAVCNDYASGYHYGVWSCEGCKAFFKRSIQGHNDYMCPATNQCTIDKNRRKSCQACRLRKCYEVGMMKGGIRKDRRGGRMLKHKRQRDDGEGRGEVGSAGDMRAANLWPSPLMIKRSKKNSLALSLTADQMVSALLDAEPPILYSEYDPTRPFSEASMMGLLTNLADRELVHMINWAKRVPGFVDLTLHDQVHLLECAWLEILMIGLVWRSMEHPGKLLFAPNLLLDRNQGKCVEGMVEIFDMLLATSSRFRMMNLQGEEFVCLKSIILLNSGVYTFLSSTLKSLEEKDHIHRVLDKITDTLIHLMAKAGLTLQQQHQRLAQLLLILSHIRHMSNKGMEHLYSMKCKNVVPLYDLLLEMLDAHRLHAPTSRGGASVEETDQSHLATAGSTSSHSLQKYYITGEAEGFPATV

Estrogen receptor beta [2] = target: T1, Estrogen receptor beta; assay: Modulation of ER-beta (unknown origin)
Estrogen receptor beta [3] = target: T1, Estrogen receptor beta; assay: Displacement of EL red from human full-length ER-beta expressed in baculovirus expression system incubated for 2 hrs by fluorescence polarization assay
MCF7 = assay: Antiproliferative activity against human MCF7 cells assessed as inhibition of cell growth; assay type: functional, cell-based

T1 sequence (Q92731 whole entry): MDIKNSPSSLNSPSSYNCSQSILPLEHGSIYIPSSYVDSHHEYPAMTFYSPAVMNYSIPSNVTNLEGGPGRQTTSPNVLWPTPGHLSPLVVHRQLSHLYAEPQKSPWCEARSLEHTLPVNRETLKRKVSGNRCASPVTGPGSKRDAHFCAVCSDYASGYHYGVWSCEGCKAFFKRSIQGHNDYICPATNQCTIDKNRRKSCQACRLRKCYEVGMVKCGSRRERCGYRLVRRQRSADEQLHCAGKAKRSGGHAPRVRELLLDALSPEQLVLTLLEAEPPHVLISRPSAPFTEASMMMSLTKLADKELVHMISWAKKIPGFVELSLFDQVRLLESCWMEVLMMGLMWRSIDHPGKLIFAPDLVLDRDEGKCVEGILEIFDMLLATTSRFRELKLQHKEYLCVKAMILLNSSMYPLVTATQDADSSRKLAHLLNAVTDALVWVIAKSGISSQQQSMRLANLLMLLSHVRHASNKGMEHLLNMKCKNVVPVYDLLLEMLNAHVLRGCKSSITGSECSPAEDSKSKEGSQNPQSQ

CCOC(=O)C1(C(C)=O)Cc2ccc([C@]3(O)CC[C@H]4[C@@H]5CCc6cc(O)ccc6[C@H]5CC[C@@]43C)cc2C1 (stereo partly specified)
EC50 (Estrogen receptor beta [1]): 1.8 nM

C[C@]12C=CC(=O)C=C1C[C@@H](Sc1ccc(N)cc1)[C@@H]1[C@@H]2CC[C@]2(C)C(=O)CC[C@@H]12
Ki (Aromatase): 18 nM

C[C@]12CC[C@@H]3c4ccc(O)cc4CC[C@H]3[C@@H]1C[C@H]1OC(=O)C[C@]12O
EC50 (Estrogen receptor): 0.014 nM
EC50 (Estrogen receptor beta [2]): 23 nM

Oc1ccc([C@H]2COc3cc(O)ccc3C2)cc1 [AUS-131]
IC50 (Estrogen receptor beta [3]): 5570 nM

C[C@]12CC[C@@H]3c4ccc(O)cc4C[C@@H](CCCCCCCCC[S+]([O-])CCCC(F)(F)C(F)(F)F)[C@H]3[C@@H]1CC[C@@H]2O (stereo partly specified) [FULVESTRANT]
IC50 (MCF7): 0.29 nM
